In paper PMC6934184, “Selective DNA-PKcs inhibition extends the therapeutic index of localized radiotherapy and chemotherapy” (The Journal of Clinical Investigation, 2019):

Target: T1, GSK3A (GSK3 alpha) (Homo sapiens, UniProt P49840)
T1 construct: purchased Thermo Fisher Scientific (Life Technologies) SelectScreen
Experiment: SelectScreen Z'LYTE
Format: biochemical
Summary of the method: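 NU5455 was profiled across the SelectScreen Broad panel of kinase activity and binding assays. Z'LYTE reactions such as CSF1R ran at apparent Km ATP, while the Adapta CAMK1 assay used ATP listed as 10. Values are given as percent.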

T1 sequence (P49840 whole entry): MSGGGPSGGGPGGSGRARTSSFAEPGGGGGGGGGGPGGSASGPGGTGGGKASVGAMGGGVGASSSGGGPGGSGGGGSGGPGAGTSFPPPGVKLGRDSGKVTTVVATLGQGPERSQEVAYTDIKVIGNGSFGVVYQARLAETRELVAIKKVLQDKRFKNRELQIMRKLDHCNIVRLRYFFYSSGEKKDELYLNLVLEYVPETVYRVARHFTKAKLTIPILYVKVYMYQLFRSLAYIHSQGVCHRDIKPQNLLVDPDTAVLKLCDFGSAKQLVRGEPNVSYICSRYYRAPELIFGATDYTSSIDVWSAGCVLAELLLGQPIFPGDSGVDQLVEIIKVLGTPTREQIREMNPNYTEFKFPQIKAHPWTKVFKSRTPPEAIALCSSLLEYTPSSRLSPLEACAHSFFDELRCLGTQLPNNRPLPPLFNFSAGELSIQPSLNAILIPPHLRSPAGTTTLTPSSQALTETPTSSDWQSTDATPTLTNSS

For `CN(C(=O)CN1CCOCC1)c1ccc2sc3c(-c4cccc5c(=O)cc(N6CC7CCC(C6)O7)oc45)cccc3c2c1` [NU5455], the inhibition at 1 µM was -5.5%.
